# Measured values as given in patent US20150159222A1, “MARKERS ASSOCIATED WITH HUMAN DOUBLE MINUTE 2 INHIBITORS” (NOVARTIS AG, priority 2012, published 2015).
# Columns and labels:
# CCLE cell lines = experiment: Chemical sensitivity of the CCLE cell line panel; assay type: cell-based
# Protocol: […]. The cell line panel is the one covered by the Cancer Cell Line Encyclopedia (CCLE) initiative (Barretina J., Caponigro G., Stransky N., Venkatesan K., et al. The Cancer Cell Line Encyclopedia enables predictive modeling of anticancer drug sensitivity. Nature 483:603-7, 2012). A detailed genomic, genetic and pharmacologic characterization was conducted on the CCLE cell lines.
# p53 mutation status in CCLE cell lines is taken from a data source of gene-level genetic alterations, for example, point-mutations, insertions, deletions and complex genetic alterations, compiled from the Sanger center COSMIC data and internal sources including Exome Capture Sequencing. This comprises data from approximately 1,600 cancer-related genes over the CCLE cell lines.
# […]. […] From such in vitro chemical sensitivity data, the prediction that a cell would be sensitive to an MDM2i treatment was estimated to be 13%. […].
# [1] = tested on: p53 wild-type (SJSA-1 and HCT116 p53wt/wt cells) and p53 mutant cell lines (SAOS2 and HCT116 p53-/- cells); experiment: Cell proliferation inhibition assay (YOPRO); assay type: cell-based; settings: 72 hours; p53 wild-type vs p53 mutant cell lines
# Protocol: Lucern, Switzerland). Briefly, cells are plated in 96-well plates overnight at 37° C. and are treated with increasing concentrations of MDM2i(1) or MDM2i(2) for 72 hours. Cell concentration in each well is then determined using the DNA-interacting fluorescent dye YOPRO according to the manufacturer's instructions and the fluorescent signal is measured using a Gemini-EM standard plate reader (Molecular Devices: Sunnyvale, Calif., USA).
# human normal fibroblasts = settings: cited from earlier work
# SJSA-1 cell line = settings: SJSA-1 xenografts in mouse; cited from earlier work
# mouse normal fibroblasts = settings: cited from earlier work
# SJSA-1 osteosarcoma line = settings: SJSA-1, amplified copies of the MDM2 gene; cited from earlier work
# p21(CDKN1A) [2] = experiment: p21(CDKN1A) mRNA in SJSA-1 xenograft tumors (qRT-PCR); assay type: in vivo, Harlan nude mice
# Protocol: Briefly, total RNA was purified from cell pellets using the QIAshredder® (79654, Qiagen:Valencia Calif., USA) and RNeasy Mini Kit® (74106, Qiagen: Valencia Calif., USA) according to the manufacturer's instructions, with the exception that no DNA digestion was performed. Total RNA was eluted with 50 μL of RNase-free water. Total RNA was quantitated using the spectrophotometer ND-1000 Nanodrop® (Wilmington Del., USA). The qRT-PCR (Quantitative Reverse Transcriptase Polymerase Chain Reaction) was set up in triplicate per sample using the One-Step RT qPCR Master Mix Plus (RT-QPRT-032X, Eurogentec: Seraing, Belgium), with either control primers and primers for human p21(CDKN1A) (Hs00355782_m1, Applied Biosystems: Carlsbad Calif., USA) or mouse p21(CDKN1A) (Mm00432448_m1, Applied Biosystems: Carlsbad Calif., USA), namely TaqMan Gene Expression kit assays (20× probe dye FAM™ (or VIC)-TAMRA (or MGB); Applied Biosystems: Carlsbad Calif., USA). […] The number of cycles (CT) was determined, 2^−CT values were calculated, and the value normalized by dividing with the 2^−CT value obtained from the GAPDH control. Fold increase over control (i.e. DMSO- or vehicle-treated animals) was calculated and plotted in the bar graph.
# C3A cells = experiment: Western blot of p53 pathway proteins in C3A cells; assay type: cell-based; settings: 4 hours
# Protocol: (§1) That the biomarkers in Table 2/FIG. 3 are reflective of a functional p53 pathway in MDM2i sensitive cells is verified in FIG. 4. […]. Whole cell lysates were prepared using a cell lysis buffer containing 50 mM Tris-HCl pH 7.5, 120 mM NaCl, 1 mM EDTA, 6 mM EGTA pH 8.5, 1% NP-40, 20 mM NaF, 1 mM PMSF and 0.5 mM Na-Vanadat, proteins were separated on NuPAGE 4-12% Bis-Tris Gel (Invitrogen # NP0322BOX, Lucerne; Switzerland), transferred onto Nitrocellulose Protran® BA 85 membranes (Whatman #10 401 261: Piscataway, N.J., USA) at 1.5 mA/cm^2 membrane for 2 h using a semi-dry blotting system, and immunoblotted with either an anti-phospho-p53 (Ser^15) (1/1000; Cell Signaling Technology #9284: Beverly, Mass., USA) rabbit polyclonal antibody, or an anti-p53 (Ab-6) (Pantropic, clone DO-1,) (1/1000; Calbiochem # OP43 San Diego, Calif., USA), an anti-MDM2 (Ab-1, clone IF2) (1/1000; Calbiochem # OP46), an anti-p21^WAF1(Ab-1, clone EA10) (1/500; Calbiochem # OP64: San Diego, Calif., USA) or an anti-a-Tubulin (Sigma # T5168: St. Louis, Mo., USA) mouse monoclonal antibodies, as indicated. […].
# [3] = tested on: SJSA-1 osteosarcoma cells; experiment: SJSA-1 xenograft tumor growth; assay type: in vivo, Harlan nude mice; settings: for T/C: 10-day treatment
# Protocol: To further validate the predictive biomarkers disclosed in FIG. 3, in vivo human xenograft models either from human primary samples or from cell lines were directly injected and grown in tumors subcutaneously in mice and then assessed for MDM2i sensitivity. All the animals were allowed to adapt for 4 days and housed in a pathogen-controlled environment (5 mice/Type III cage) with access to food and water ad libitum. Animals were identified with transponders. Studies were performed according to procedures covered by permit number 1975 issued by the Kantonales Veterinaramt Basel-Stadt and strictly adhered to the Eidgenössisches Tierschutzgesetz and the Eidgenössische Tierschutzverordnung. Subcutaneous tumors were induced by concentrating 3.0×10^6 SJSA-1 osteosarcoma cells in 100 μl of PBS (without Ca^2+ and Mg^2+) and injecting in the right flank of Harlan nude mice. The administration of MDM2i began 12-14 days post cell injection. MDM2i was prepared immediately before each administration. MDM2i compounds were dissolved in 0.5% HPMC (hydroxypropylmethylcellulose) and were injected daily (q24h) at 25, 50 or 100 mg/kg. Tumor volumes (TVol), determined from caliper measurements (using the formula l×w×h×π/6) were measured three times per week. Tumor response was quantified by the change in tumor volume (endpoint minus starting value in mm^3) as the T/C, i.e.
# In the case of a tumor regression, the tumor response was quantified by the percentage of regression of the starting TVoI, i.e.
# The body-weight (BW) of the mice was measured three times per week allowing calculation at any particular time-point relative to the day of initiation of treatment (day 0) of both the percentage change in BW (Δ % BW). […].
# p21(CDKN1A) [4] = experiment: p21(CDKN1A) protein in SJSA-1 xenograft tumors (immunohistochemistry); assay type: in vivo, Harlan nude mice
# Protocol: SJSA-1 xenograft tumors were collected and a 3-4 mm slice out of the middle of the tumor was removed, transferred into pre-labelled histo-cassettes and immersion-fixed in neutral buffered formalin (NBF) 10% (v/v) (pH 6.8-7.2) (J. T. Baker, Winter Garden, Fla., USA), pre-cooled at 4° C. Tumors were then fixed at room temperature for 24 hours, followed by processing in the TPC 15Duo (Tissue Processing Center, Medite) for paraffinization. Subsequently, the tumor slices were embedded in paraffin and from each paraffin block several 3 μm thick sections were cut on a rotary microtome (Mikrom International AG, Switzerland), spread in a 48° C. water-bath, mounted on glass slides (SuperFrost Plus, Thermo Scientific:Waltham Mass., USA), and dried in an oven either at 37° C. overnight or at 60° C. for 30 min. Dry tissue section were processed for immunohistochemistry (IHC) staining. p21(CDKN1A) immunohistochemistry has been performed using the mouse monoclonal antibody clone SX118 from Dako (Cat. No. M7202 Dako: Carpenteria Calif., USA) at a dilution of 1:50. Immunohistochemistry has been performed on a Ventana Discovery XT automated immunostainer using the N-Histofine Mousestain Kit (Nichirei Bioscience Inc, Japan) in combination with the DABMap Kit chromogen system, omitting the SA-HRP solution (Ventana/Roche Diagnostics GmbH, Mannheim, Germany). […]
# COLO 792 cells = experiment: Western blot of p53 pathway proteins in COLO 792 cells; assay type: cell-based; settings: 4 hours
# Protocol: as §1
# [5] = C3A cells, increasing concentrations
# [6] = COLO 792 cells, increasing concentrations
structure (smiles),measurement,setting,value
COc1cc2c(cc1OC(C)C)[C@H](c1ccc(Cl)cc1)N(c1ccc(N(C)C[C@H]3CC[C@H](N4CCNC(=O)C4)CC3)cc1)C(=O)C2 [MDM2i(2)],number of insensitive cell lines,CCLE cell lines; CCLE panel,309
same,number of sensitive cell lines,CCLE cell lines; CCLE panel,47
same,sensitivity of p53 mutated cell lines,CCLE cell lines; p53 mutated CCLE cell lines,majority of p53 mutated cell lines are found insensitive
same,sensitivity of p53 wild type cell lines,CCLE cell lines; p53 wild type CCLE cell lines,more than two-third of p53 wild type cell lines are sensitive
same,tumor cell proliferation,[1],hampering tumor cell proliferation in a p53-dependent manner
COc1ccc(C2=N[C@@H](c3ccc(Cl)cc3)[C@@H](c3ccc(Cl)cc3)N2C(=O)N2CCNC(=O)C2)c(OC(C)C)c1 [Nutlin-3],proliferation and viability of non-cancerous cells,human normal fibroblasts,"the proliferation of the cells was slowed, they retained their viability"
same,reduction of xenograft growth,SJSA-1 cell line,90%
same,proliferation and viability of non-cancerous cells,mouse normal fibroblasts,"the proliferation of the cells was slowed, they retained their viability"
same,proliferation and apoptosis,SJSA-1 osteosarcoma line,reduced proliferation and increased apoptosis
COc1cc2c(cc1OC(C)C)[C@H](c1ccc(Cl)cc1)N(c1ccc(N(C)C[C@H]3CC[C@H](N4CCN(C)C(=O)C4)CC3)cc1)C(=O)C2 [MDM2i(1)],p21(CDKN1A) mRNA levels in tumors,p21(CDKN1A) [2],significant dose-dependent induction of p21(CDKN1A) mRNA levels in tumors
same,p53 protein levels,C3A cells; [5],induces stabilization of p53 protein levels
same,phospho-p53,C3A cells; [5],no significant increase of phospho-p53
same,expression of p53 target genes p21(CDKN1A) and MDM2,C3A cells; C3A sensitive cells,induces a strong de novo expression of both p53 target genes p21(CDKN1A) and MDM2
same,T/C,[3]; 25 mg/kg q24h,50%
same,T/C,[3]; 50 mg/kg q24h,3%
same,tumor regression,[3]; 100 mg/kg q24h for 10 days,65%
same,p21(CDKN1A) protein levels in tumors,p21(CDKN1A) [4],significant dose-dependent induction of p21(CDKN1A) protein levels in tumors
same,p53 protein levels,COLO 792 cells; [6],induces stabilization of p53 protein levels
same,phospho-p53,COLO 792 cells; [6],no significant increase of phospho-p53
same,expression of p53 target genes p21(CDKN1A) and MDM2,COLO 792 cells; COLO-792 insensitive cell line,not in COLO-792 insensitive cell line
same,tumor cell proliferation,[1],hampering tumor cell proliferation in a p53-dependent manner
